What was measured:
Assay type in all cases: in vivo, rat
diabetic rats [1] = assay: Motor nerve conduction velocity (NCV) in sciatic nerve of streptozotocin-diabetic rats; details: for motor NCV: 2-week daily oral treatment after 6 weeks untreated diabetes, diabetic around 50 m/s, non-diabetic around 60 m/s; for ED50: Rattus norvegicus, calculated from dose response curves of FIG. 13; for times more potent than GLA in restoring motor nerve conduction velocity: from ED50 values
Description: (§1) Male Sprague-Dawley rats (Aberdeen University colony) were used, which were 19 weeks old at the start of the study. Diabetes was induced by intraperitoneal streptozotocin injection at 40-45 mg kg^−1 freshly dissolved in sterile 0.9% saline solution. This was verified 24 hours later by estimating hyperglycaemia (blood glucose>19.9 mM) and glycosuria, and diabetic state was monitored weekly using test strips for blood (tail vein) and urine glucose levels. Body weight was also monitored daily to check against body weight gain (which would indicate partial recovery of beta cell function and exclude diabetic status).
(§2) After 6 weeks of untreated diabetes, four experimental groups (n=6 per group) were treated for a 2-week period, with a daily oral administration of 13-HODE at a range of dosages (13-Hydoxydienoic acid, Equateq, Isle of Lewis, UK), added to the food and dispersed in a sunflower oil vehicle. Experimental groups were treated with doses of a representative compound of the invention,13-HODE, ranging from 0.01 mg/kg/day to 100 mg/kg/day.
Rats were anaesthetized with thiobutabarbital sodium (50-100 mg kg^−1 i.p.). The trachea was cannulated for artificial respiration.
The sciatic nerve was exposed between the sciatic notch and knee, and Motor nerve conduction velocity (NCV) was measured using concentric bipolar electrodes, as described in Cameron N E, et al (1989) Q J Exp Physiol 74:917-926 and Cameron N E, et al (1991) Diabetes 40:532-539, in the nerve branch to tibialis anterior muscle, which is representative of the whole sciatic nerve in terms of susceptibility to diabetes and treatment effects. Evoked electromyographic (EMG) potentials from each stimulating site were averaged 8 times, and Motor NCV was calculated by dividing the distance between stimulating electrodes by the average latency difference between the onset of EMG potentials evoked from the 2 sites. Nerve temperatures were monitored by thermocouple probes, and maintained in the range 36-38° C. by radiant heat. Body temperature was also maintained around 37° C. using a heated blanket.
Experiments were carried out in similar fashions to Examples 1 and 2 except that 15-HETrE was used instead of 13-HODE.
An experiment was carried out in accordance with the method of Example 1 to determine the effect of GLA, 13-HODE and 15-HETrE on Motor NCV in diabetic rats.

diabetic rats [2] = assay: Sensory nerve conduction velocity (NCV) in saphenous nerve of streptozotocin-diabetic rats; details: 2-week daily oral treatment after 6 weeks untreated diabetes, diabetic around 50 m/s, non-diabetic around 60 m/s
Description: as §1, §2
Rats were anaesthetized with thiobutabarbital sodium (50-100 mg kg^−1 i.p.). […]
An experiment was carried out in a similar fashion to Example 1 except that Sensory NCV was measured in the saphenous nerve between groin and mid calf. Direct nerve evoked potentials were recorded at the ankle using a unipolar platinum hook electrode. […]

diabetic rats [3] = assay: Major pelvic ganglion blood flow by hydrogen clearance; details: 1 mg/kg/day in food for 2 weeks
diabetic rats [4] = assay: Sciatic nerve endoneurial blood flow by microelectrode polarography and hydrogen clearance; details: 1 mg/kg/day in food for 2 weeks, flow halved in diabetic rats
Description: Diabetes was induced in mature (19 week old) male Sprague-Dawley by streptozotocin injection (40-45 mg/kg i.p.). The diabetic state was monitored weekly using commercially available test strips for blood (tail vein) and urine glucose levels. Body weight would also be monitored daily. The criteria for the diabetic state are; blood glucose>19.9 mM, glycosuria, and no evidence of body weight gain (which would indicate partial recovery of beta cell function). At the end of the experiments, blood samples would be taken for the determination of plasma glucose. […]
Sciatic nerve endoneurial blood flows in non-diabetic control rats, diabetic rats treated with vehicle alone and diabetic rats treated with 13-HODE were estimated by microelectrode polarography and hydrogen clearance, using the methods described in Day T J, Lagerlund T D, Low P A (1989) Analysis of H2 clearance curves used to measure blood flow in rat sciatic nerve, J Physiol 414:35-54, and Cameron N E, Cotter M A, Low P A (1991) Nerve blood flow in early experimental diabetes in rats: relation to conduction deficits, Am J Physiol 261:E1-E8. […] The level of anaesthesia was monitored by observing any reaction of blood pressure to manipulation, and supplementary thiobutabarbital anaesthetic given as necessary. […]

diabetic rats [5] = assay: Hargreaves plantar test, withdrawal latency to noxious thermal stimulation of the foot; details: 1 mg/kg/day in food for 2 weeks
Description: (§3) Diabetes was induced in mature (19 week old) male Sprague-Dawley by streptozotocin injection (40-45 mg/kg i.p.). The diabetic state was monitored weekly using commercially available test strips for blood (tail vein) and urine glucose levels. Body weight would also be monitored daily. The criteria for the diabetic state are; blood glucose>19.9 mM, glycosuria, and no evidence of body weight gain (which would indicate partial recovery of beta cell function). At the end of the experiments, blood samples would be taken for the determination of plasma glucose.
(§4) Experiments were designed with a reversal (intervention) paradigm: diabetic rats were untreated for 6 weeks to allow the development of neurovascular dysfunction. They were then treated over the next 2 weeks with a dose of 1 mg/kg/day of a representative compound of the invention, 13-HODE, given as a dietary supplement dispersed in the food with a sunflower oil vehicle (50 ml/2.5 kg food). […]
Before final experiments, nociceptive latencies for withdrawal reflexes to noxious thermal stimulation of the foot were estimated by the Hargreaves plantar test using commercially available equipment (Ugo-Basile, Comerio, Italy). […] After 30 min acclimatization, a constant power infrared stimulus was focused through the glass base onto the sole of the foot and the latency for reflex foot withdrawal automatically recorded via a photoelectric monitor. […]

diabetic rats [6] = assay: Corpus cavernosum pressure responses to cavernous nerve stimulation
Description: as §3
as §4, with “food). Groups of nondiabetic control rats and diabetic rats treated with vehicle alone were also studied.” for “food).”
Non-diabetic control rats, diabetic rats treated with vehicle alone and diabetic rats treated with 13-HODE were anaesthetized with thiobutabarbital (50-100 mg kg^−1 i.p.). […] Cavernosal pressure responses were recorded in response to 60 s periods of suprathreshold (3-5 mA) nerve stimulation at frequencies in the range 1-32 Hz (stimulus duration 1.5-2 ms). […]

diabetic rats [7] = assay: Randall-Sellito test, mechanical pressure thresholds; details: 1 mg/kg/day in food for 2 weeks
Description: as §3
(§5) Experiments were designed with a reversal (intervention) paradigm: diabetic rats were untreated for 6 weeks to allow the development of neurovascular dysfunction. They were then treated over the next 2 weeks with a dose of 1 mg/kg/day of a representative compound of the invention, 13-HODE, given as a dietary supplement dispersed in the food with a sunflower oil vehicle (50 ml/2.5 kg food). Groups of nondiabetic control rats and diabetic rats treated with vehicle alone were also studied.
Groups of non-diabetic control rats, diabetic rats treated with vehicle alone and diabetic rats treated with 13-HODE were obtained as in Example 4.
Before final experiments, nociceptive thresholds for mechanical stimulation were measured by the Randall-Sellito test . […]

diabetic rats [8] = assay: Tactile allodynia, electronic von Freys hair apparatus; details: 1 mg/kg/day in food for 2 weeks
Description: as §3
as §5, with “studied. […]” for “studied.”
Tactile allodynia in non-diabetic control rats, diabetic rats treated with vehicle alone and diabetic rats treated with 13-HODE was monitored using an electronic von Freys hair apparatus. […] Allodynia was measured for each foot on one day.

Row | Structure (SMILES) | motor NCV (diabetic rats [1]) | ED50 (diabetic rats [1]) [mg/kg] | times more potent than GLA in restoring motor nerve conduction velocity (diabetic rats [1]) | sensory NCV (diabetic rats [2]) | major pelvic ganglion blood flow (diabetic rats [3]) | sciatic nerve endoneurial blood flow (diabetic rats [4]) | latency of response to thermal stimuli (increased sensitivity to noxious heat) (diabetic rats [5]) | whole-frequency response curve versus nondiabetic controls (diabetic rats [6]; 1 mg/kg/day for 2 weeks, 2-way ANOVA p<0.01) | cavernosal pressure responses to nerve stimulation: diabetic deficit (diabetic rats [6]; 1 mg/kg/day in food for 2 weeks, stimulation 1-32 Hz) | sensitivity to mechanical deep pressure (foot withdrawal) (diabetic rats [7]) | tactile allodynia (threshold for foot withdrawal to tactile stimulation) (diabetic rats [8])
1 | CCCCCC(O)/C=C/C=C\C/C=C\CCCCCCC(=O)O (stereo not shown) [15-HETrE, 15-Hydroxy-eicosa-8Z,11Z,13E-trienoic acid] | around 60 m/s | 0.252 | approximately 500 times | around 60 m/s | – | – | – | – | – | – | –
2 | CCCCC/C=C\C/C=C\C/C=C\CCCCC(=O)O [GLA, gamma-linolenic acid, reference compound] | – | 165 | – | – | – | – | – | – | – | – | –
3 | CCCCCC(O)/C=C/C=C\CCCCCCCC(=O)O (stereo not shown) [13-HODE, 13-Hydroxyoctadeca-9Z,11E-dienoic acid] | around 60 m/s | 0.057 | approximately 3000 times | around 60 m/s | restored to within the nondiabetic range | completely restored | completely corrected | significantly greater pressure response | completely corrected | small but statistically significant improvement | almost completely reversed

— US20120122982A1, “USE OF PUFAS TO TREAT NERVE DAMAGE” (Equateq Limited, priority 2009, published 2012)
